Results: patent publication US20100227841A1, “Patient populations and treatment methods” (Harbor BioSciencs, Inc., priority 2008, published 2010)

Assays:
[1] = tested on: pre-diabetic hyperglycemic patients and patients having type 2 diabetes; test: Glucose clamp (M value) in 28-day clinical trial of oral capsules; assay type: in vivo, human
Method: Groups of pre-diabetic hyperglycemic patients and patients having type 2 diabetes were treated for 28 days with the experimental drug 17α-ethynylandrost-5-ene-3β,7β,17β-triol (oral capsules) or with placebo. […] Placebos were obtained with each treatment cohort based on protocol randomization of 2 treated:1 placebo. The pre-diabetic patients were obese (body mass index ≧29 kg/m^2) and glucose intolerant (fasting plasma glucose <126 mg/dL; 2-hr post prandial glucose 140-200 mg/dL after 75 g oral glucose). The diabetic patients were dosed with 10 mg/day for 28 days (n=6; cohort 6). […] Patients with an M value of <5 mg glucose/kg/min (M<5) were considered insulin resistant and patients with an M value of >5 mg glucose/kg/min (M>5) were considered insulin sensitive or essentially normal for whole body glucose metabolism.
The analysis of responders used standard analysis. Due to the cohort sizes and the ongoing basis of this clinical protocol, data for surrogates that corresponded to significance at p≦0.10 (trend) were considered positive evidence of surrogacy of the biomarker for the M<5 insulin resistant condition.

type 2 diabetes patients = test: Phase 2 monotherapy protocol in treatment naive type 2 diabetes patients; assay type: in vivo, human
Method: A phase 2 clinical treatment protocol was conducted in type 2 diabetes patients using a monotherapy consisting of 17α-ethynylandrost-5-ene-3β,7β,17β-triol. The patients had not been treated with another antidiabetic agent or any insulin sensitizer such as metformin for at least 90 days before the start of dosing. […] The patients (n=51) received 10 mg/day of 17α-ethynylandrost-5-ene-3β,7β,17β-triol (5 mg twice per day) for 84 days and were then followed until day 112. Effects of treatment were examined in subsets of patients having differing BMI values.

[2] = tested on: toll-like receptor 4 (TLR4) signaling; test: LPS-induced proinflammatory signaling in macrophages (Western blot, qNPA array); assay type: cell-based, mouse
Method: Methods. LPS and recombinant TNFα were obtained from Sigma. Anti-SREBP2 was obtained from Abcam (Cambridge, Mass.). Other primary antibodies were purchased from Cell Signaling Technology (Danvers, Mass.) unless otherwise indicated. Murine primary macrophages were elicited by intraperitoneal injection of thioglycollate (3 mL/mouse) in C57BL/6J mice. Macrophages were obtained from intraperitoneal lavage and washed twice. Cells were cultured in RPMI supplemented with 10% fetal bovine serum (FBS) for 3 days and then starved in RPMI supplemented with 0.5% FBS for overnight before the treatment. RAW 264.7 cells and 3T3-L1 cells were cultured essentially as described elsewhere (T. Yoshizaki, et al. Molecular and Cellular Biology, 29:1363-1374, 2009).
Gene expression analyses used total RNA extracted from tissue with Purelink total RNA purification system (Invitrogen) following the manufacturer's protocol. Total RNA (2 μg) was reverse-transcribed using iScript cDNA Synthesis Kit (Bio-Rad Laboratories, Hercules, Calif.). Primer sequences used in the PCR reactions were chosen based on the sequences available in GenBank. Primer sequences are available upon request. PCR was carried out using iTaq SYBR Green supermix (Bio-Rad Laboratories, Hercules, Calif.) on an MJ Research Chromo4 Real Time PCR system (Bio-Rad Laboratories BV, Hercules, Calif.). […] For Quantitative Nuclease Protection Assay (qNPA), cells were lysed in lysis buffer after various treatments. The qNPA ArrayPlate assays were performed by High Throughput Genomics, Inc.
For Western blots, cells were serum starved and pretreated with DMSO or 17α-ethynylandrost-5-ene-3β,7β,17β-triol (100 nM) for overnight before LPS (100 ng/ml) or TNFα (10 ng/ml) stimulation for the indicated times, and then were lysed in radioimmunoprecipitation buffer containing protease inhibitor cocktail (Roche) and phosphatase inhibitor cocktail (Sigma). Total cell lysates were separated by 10% SDS-PAGE. The blots were incubated first with blocking buffer (Tris-buffered saline containing 0.05% Tween 20 and 5.5% nonfat milk) followed by primary antibodies in blocking buffer or Tris-buffered saline containing 2% BSA. The bound antibodies were detected by horseradish peroxidase-conjugated secondary antibodies (1:4000, v/v) in blocking buffer and visualized by enhanced chemiluminescence.

[3] = pretreatment 100 nM overnight, LPS 100 ng/ml, p<0.05

C#C[C@]1(O)CC[C@H]2[C@@H]3[C@@H](O)C=C4C[C@@H](O)CC[C@]4(C)[C@H]3CC[C@@]21C [17α-ethynylandrost-5-ene-3β,7β,17β-triol]
minimal effective dose ([1]; 28 days, lower degree of response than higher doses): 4 mg/day | change in M value ([1]; interim analysis, M<5, two patients treated with 20 mg/day): increased | change in M value ([1]; interim analysis, M<5 patients, 10 mg/day (5 mg twice per day) vs placebo, p=0.0286): significantly increased | change in M value ([1]; interim analysis, M<5 patients, pooled 10 mg/day or 20 mg/day vs placebo, p=0.0095): significantly increased | change in M value ([1]; interim analysis, M>5 patients, 10 mg/day, 20 mg/day or pooled vs placebo): no statistically significant difference | change in M value ([1]; interim analysis, overall protocol, 20 mg/day group, p=0.0823): trends to significance | change in M value ([1]; interim analysis, overall protocol, 'mg/day group', p=0.0513): trends to significance | change in M value ([1]; interim analysis, overall protocol, pooled patients, p=0.0278): significantly increased | M value (glucose control) ([1]; one pre-diabetic hyperglycemic patient, 28 days of dosing 4 mg/day): increased | effectiveness of treatment by M value subgroup ([1]; pre-diabetic hyperglycemic patients having M<5): most effective | change in M value ([1]; second interim analysis, M<5, 10 mg/day vs placebo, p=0.002): significantly increased | change in M value ([1]; second interim analysis, M<5, pooled 10 mg/day or 20 mg/day vs placebo, p=0.0007): highly significant positive change | change in M value ([1]; second interim analysis, M>5 patients, 10 mg/day, 20 mg/day or pooled vs placebo): no statistically significant difference | change in M value ([1]; second interim analysis, overall protocol, 10 mg/day group, p=0.04): significantly increased | change in M value ([1]; second interim analysis, overall protocol, 20 mg/day group, p=0.04): significantly increased | change in M value ([1]; second interim analysis, overall protocol, pooled patients, p=0.0109): significantly increased | C-reactive protein (type 2 diabetes patients; BMI greater than 31.3 kg/m^2, day 57, p=0.053): trend to decreased | patients with decreased HbA1c to <7% (type 2 diabetes patients; BMI greater than 31.3 kg/m^2, day 84, placebo 0/14): 2/9 | decreases in serum MCP-1 (type 2 diabetes patients; BMI greater than 31.3 kg/m^2, days 29, 57 and 84): > 600 pg/mL | observed effects in lower BMI subset (type 2 diabetes patients; patients having a BMI of less than about 31): less pronounced | HbA1c decrease (type 2 diabetes patients; patients with BMI greater than 31.3 kg/m^2 (n=22), 10 mg/day for 84 days, day 112, p=0.041): 1.1% | LPS-induced activation of ERK [2, 3]: partially, but significantly, blocked | LPS-induced activation of IKK [2, 3]: partially, but significantly, blocked | LPS-induced activation of JNK [2, 3]: partially, but significantly, blocked | LPS-induced activation of p38 [2, 3]: partially, but significantly, blocked | IκB phosphorylation and degradation ([2]; pretreatment 100 nM, LPS): not influenced | NFκB phosphorylation ([2]; pretreatment 100 nM, LPS): reduced | LPS-induced transcription of Cxcl1 ([2]; qNPA array): significantly reduced | LPS-induced transcription of Cxcl10 ([2]; qNPA array): significantly reduced | LPS-induced transcription of IL-1β ([2]; qNPA array): significantly reduced | LPS-induced transcription of IL-6 ([2]; qNPA array): significantly reduced | LPS-induced transcription of IL-12 ([2]; qNPA array): significantly reduced | LPS-induced transcription of Nos2 ([2]; qNPA array): significantly reduced | LPS-induced transcription of TNFα ([2]; qNPA array): significantly reduced
